Results as given in patent publication US9822115B2, “Nitrogen containing compounds and their use as antibacterial agents” (WOCKHARDT LIMITED, priority 2014, dated 2017).
Values after ≈ are worked out from the molar mass of the structure shown. Structures can show the parent of a compound that is named as a salt. Where two headings read alike, the source gives them in different places.

What was measured:
[1] = target: T1, Class A beta-lactamase, K. pneumoniae ATCC 700603 (SHV 18) (Klebsiella pneumoniae, UniProt P0AD64, E235K/G234A/R39S); assay: biochemical
T1 construct: preincubated mixture of crude enzyme and the agents; endogenous in cells; host or cells: K. pneumoniae ATCC 700603
T1 sequence (P0AD64 22-286 R39S/G234A/E235K): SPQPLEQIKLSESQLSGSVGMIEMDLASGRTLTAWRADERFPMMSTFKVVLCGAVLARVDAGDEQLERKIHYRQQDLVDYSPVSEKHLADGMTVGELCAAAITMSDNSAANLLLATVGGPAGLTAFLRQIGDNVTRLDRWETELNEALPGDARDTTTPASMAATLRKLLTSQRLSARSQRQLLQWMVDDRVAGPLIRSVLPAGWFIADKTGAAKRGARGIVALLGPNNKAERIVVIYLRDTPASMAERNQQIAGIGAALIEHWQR
Experimental: (§1) Determination of enzyme inhibition activity: Concentration of the inhibitor required to inhibit 50% of enzymatic activity was measured by adding a chromogenic substrate, Nitrocefin (100 uM, 5 min) to the preincubated mixture of crude enzyme and the agents (37° C., 10 min). Absorbance was measured at 485 nm by UV-spectrophotometer. The IC50 was calculated by plotting absorbance against concentration through Sigmoidal dose response curve using Graph Pad software.
(§2) The enzyme inhibition was expressed as IC50.

[2] = target: T2, Class D beta-lactamase, A. baumannii NCTC 13301 (OXA 23) (Acinetobacter baumannii, UniProt Q9L4P2); assay: Beta-lactamase enzyme inhibition (nitrocefin, crude enzyme); format: biochemical
T2 construct: preincubated mixture of crude enzyme and the agents; endogenous in cells; host or cells: A. baumannii NCTC 13301
T2 sequence (Q9L4P2 18-273): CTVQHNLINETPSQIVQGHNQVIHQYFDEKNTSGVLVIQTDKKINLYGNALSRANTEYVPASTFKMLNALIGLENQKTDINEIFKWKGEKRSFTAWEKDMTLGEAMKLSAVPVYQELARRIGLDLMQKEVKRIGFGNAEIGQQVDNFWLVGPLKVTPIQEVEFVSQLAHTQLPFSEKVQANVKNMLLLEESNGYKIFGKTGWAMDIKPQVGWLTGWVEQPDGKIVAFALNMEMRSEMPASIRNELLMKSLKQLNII
Experimental: as §1, §2

[3] = system: K. pneomoniae S48 (NDM, SHV, TEM); assay: Antibacterial activity, MIC by agar dilution (CLSI); format: cell-based, K. pneumoniae; details: Klebsiella pneumoniae
Experimental: (§3) The biological activity of representative compounds according to the invention against various bacterial strains was investigated. In a typical study, overnight grown bacterial cultures were diluted appropriately and inoculated on the agar media containing doubling dilutions of the test compounds. Observations for growth or no growth was performed after 16-20 hours of incubation at 35±2° C. in the ambient air. The overall procedure was performed as per Clinical and Laboratory Standards Institute (CLSI) recommendations, (Clinical and Laboratory Standards Institute (CLSI), Performance Standards for Antimicrobial Susceptibility Testing, 20th Informational Supplement, M07-A9, Volume 32, No. 2, 2012). Molten Mueller Hinton Agar (BD, USA) containing serial dilutions of each antibacterial agent were poured on to the plates and allowed to solidify. Appropriate suspensions from the freshly grown cultures were prepared in normal saline so that about 10^4 CFU/spot of the organism was delivered on to the drug containing agar plates using automated multipoint inoculator (Mast, UK). The plates were incubated in Biochemical oxygen demand (BOD) incubator at 37° C. for 18 hours and then examined for growth.
(§4) The strains selected for study included E. coli NCTC 13353 producing CTX-M15 and OXA-1 beta-lactamase enzymes; K. pneumoniae H521 producing KPC, SHV, TEM beta-lactamase enzymes; and K. pneumoniae S48 producing NDM, SHV, TEM beta-lactamase enzymes. The activities are expressed as Minimum Inhibitory Concentrations (MICs) (mcg/ml).

[4] = system: K. pneumoniae H521 (KPC, SHV, TEM); assay: as above; format: cell-based; details: Klebsiella pneumoniae
Experimental: as §3, §4

[5] = system: E. coli NCTC 13353 (CTX-M15, OXA-1); assay: as above; format: cell-based; details: Escherichia coli
Experimental: as §3
as §4, with “Table 2 details the antibacterial activity of representative compounds according to invention, against various Multi Drug Resistant (MDR) Gram-negative bacterial strains. The strains” for “The strains”

[6] = Class D A. baumannii NCTC 13301 (OXA 23), read-out: Beta-lactamase enzyme inhibition IC50
[7] = 18 h, Table 2, K. pneomoniae S48 (NDM, SHV, TEM), read-out: MIC
[8] = 18 h, Table 2, K. pneumoniae H521 (KPC, SHV, TEM), read-out: MIC
[9] = NCTC13353, 18 h, Table 2, E. Coli NCTC 13353 (CTX-M15, OXA-1), read-out: MIC

Row | SMILES | IC50 [1] | IC50 [2, 6] | MIC [3, 7] | MIC [4, 8] | MIC [5, 9] | further results
1 | NC(=O)[C@@H]1CC[C@@H]2CN1C(=O)N2OS(=O)(=O)O [Avibactam, avibactam, reference compound] | 98 nM | – | – | – | – | –
2 | O=C(Cc1ccccc1)NNC(=O)[C@@H]1CC[C@@H]2CN1C(=O)N2OS(=O)(=O)O [Example 4] | 19 nM | 416 nM | – | – | – | MIC ([3]; 18 h): 2 µg/mL (≈ 5.02 µM); MIC ([4]; 18 h): > 32 µg/mL; MIC ([5]; NCTC13353, 18 h): 1 µg/mL (≈ 2.51 µM)
3 | O=C(CCc1ccccc1)NNC(=O)[C@@H]1CC[C@@H]2CN1C(=O)N2OS(=O)(=O)O [Example 5] | 9 nM | 600 nM | 8 µg/mL (≈ 19.4 µM) | > 32 µg/mL | 8 µg/mL (≈ 19.4 µM) | –
4 | O=C(CCCc1ccccc1)NNC(=O)[C@@H]1CC[C@@H]2CN1C(=O)N2OS(=O)(=O)O [Example 6, sodium salt of (2S,5R)-sulfuric acid mono-[2-(N′-(4-phenyl-butanoyl)-hydrazinocarbonyl)-7-oxo-1,6-diaza-bicylo[3.2.1]oct-6-yl]ester] | – | 207 nM | 32 µg/mL | > 32 µg/mL | 16 µg/mL | –
5 | O=C(Cc1ccccn1)NNC(=O)[C@@H]1CC[C@@H]2CN1C(=O)N2OS(=O)(=O)O [Example 8, Sodium salt of (2S,5R)-Sulfuric acid mono-[2-(N′-(pyridine-2-yl-acetyl)-hydrazinocarbonyl)-7-oxo-1,6-diaza-bicyclo[3.2.1]oct-6-yl] ester] | 25 nM | 466 nM | – | – | – | MIC ([3]; Table 2, K. pneomoniae S48 (NDM, SHV, TEM), read-out: MIC): 0.5 µg/mL; MIC ([4]; Table 2, K. pneumoniae H521 (KPC, SHV, TEM), read-out: MIC): 2 µg/mL; MIC ([5]; NCTC13353, Table 2, E. Coli NCTC 13353 (CTX-M15, OXA-1), read-out: MIC): 0.5 µg/mL
6 | O=C(Cc1ccc(Cl)cc1)NNC(=O)[C@@H]1CC[C@@H]2CN1C(=O)N2OS(=O)(=O)O [Example 9, sodium salt of (2S,5R)-sulfuric acid mono-[2-(N′-(4-chlorophenyl-acetyl)-hydrazinocarbonyl)-7-oxo-1,6-diaza-bicyclo[3.2.1]oct-6-yl]ester] | – | 173 nM | – | – | – | MIC ([3]; 18 h): 1 µg/mL; MIC ([4]; 18 h): 4 µg/mL; MIC ([5]; NCTC13353, 18 h): 1 µg/mL
7 | N#Cc1ccc(CC(=O)NNC(=O)[C@@H]2CC[C@@H]3CN2C(=O)N3OS(=O)(=O)O)cc1 [Example 10, sodium salt of (2S,5R)-sulfuric acid mono-[2-(N′-(4-cyanophenyl-acetyl)-hydrazinocarbonyl)-7-oxo-1,6-diaza-bicyclo[3.2.1]oct-6-yl]ester] | 162 nM | 805 nM | 1 µg/mL | 4 µg/mL | 1 µg/mL | –
8 | CN(C)c1ccc(CC(=O)NNC(=O)[C@@H]2CC[C@@H]3CN2C(=O)N3OS(=O)(=O)O)cc1 [Example 13, sodium salt of (2S,5R)-sulfuric acid mono-[2-(N′-(4-N,N-dimethylaminophenyl-acetyl)-hydrazinocarbonyl)-7-oxo-1,6-diaza-bicyclo[3.2.1]oct-6-yl]ester] | 62 nM | 629 nM | 8 µg/mL | > 32 µg/mL | 8 µg/mL | –
9 | COc1ccc(CC(=O)NNC(=O)[C@@H]2CC[C@@H]3CN2C(=O)N3OS(=O)(=O)O)cc1 [Example 14, sodium salt of (2S,5R)-sulfuric acid mono-[2-(N′-(4-methoxyphenyl-acetyl)-hydrazinocarbonyl)-7-oxo-1,6-diaza-bicyclo[3.2.1]oct-6-yl]ester] | – | 105 nM | 1 µg/mL | 8 µg/mL | 1 µg/mL | –
10 | CCOc1ccccc1CC(=O)NNC(=O)[C@@H]1CC[C@@H]2CN1C(=O)N2OS(=O)(=O)O [Example 15, sodium salt of (2S,5R)-sulfuric acid mono-[2-(N′-(2-ethoxyphenyl-acetyl)-hydrazinocarbonyl)-7-oxo-1,6-diaza-bicyclo[3.2.1]oct-6-yl]ester] | 49 nM | 210 nM | > 32 µg/mL | > 32 µg/mL | > 32 µg/mL | –
11 | O=C(Cc1ccc(O)cc1F)NNC(=O)[C@@H]1CC[C@@H]2CN1C(=O)N2OS(=O)(=O)O [Example 18, sodium salt of (2S,5R)-sulfuric acid mono-[2-(N′-(2-fluoro-4-hydroxyphenyl-acetyl)-hydrazinocarbonyl)-7-oxo-1,6-diaza-bicyclo[3.2.1]oct-6-yl]ester] | 154 nM | 146 nM | 0.5 µg/mL | 2 µg/mL | 0.5 µg/mL | –
12 | O=C(Cc1ccccc1O)NNC(=O)[C@@H]1CC[C@@H]2CN1C(=O)N2OS(=O)(=O)O [Example 19, sodium salt of (2S,5R)-sulfuric acid mono-[2-(N′-(2-hydroxyphenyl-acetyl)-hydrazinocarbonyl)-7-oxo-1,6-diaza-bicyclo[3.2.1]oct-6-yl]ester] | 13 nM | 677 nM | 2 µg/mL | 2 µg/mL | 1 µg/mL | –
13 | O=C(Cc1cccc(O)c1)NNC(=O)[C@@H]1CC[C@@H]2CN1C(=O)N2OS(=O)(=O)O [Example 20, sodium salt of (2S,5R)-sulfuric acid mono-[2-(N′-(3-hydroxyphenyl-acetyl)-hydrazinocarbonyl)-7-oxo-1,6-diaza-bicyclo[3.2.1]oct-6-yl]ester] | 12 nM | 249 nM | – | – | – | MIC ([3]; 18 h): 0.5 µg/mL; MIC ([4]; 18 h): 1 µg/mL; MIC ([5]; NCTC13353, 18 h): 0.5 µg/mL
14 | CC(C)(C)C(=O)Oc1ccc(CC(=O)NNC(=O)[C@@H]2CC[C@@H]3CN2C(=O)N3OS(=O)(=O)O)cc1 [Example 22, sodium salt of 2,2-dimethyl-propionic acid 4-{2-oxo-2-[N′-((2S,5R)-7-oxo-6-sulphooxy-1,6-diaza-bicyclo[3.2.1]octane-2-carbonyl)-hydrazino]ethyl}-phenyl ester] | 25 nM | 973 nM | 32 µg/mL | 32 µg/mL | 16 µg/mL | –
15 | CC(C)(C)OC(=O)CC(=O)Oc1ccc(CC(=O)NNC(=O)[C@@H]2CC[C@@H]3CN2C(=O)N3OS(=O)(=O)O)cc1 [Example 26, sodium salt of (2S,5R)-malonic acid tert-butyl ester 4-{2-oxo-2-[N′-(7-oxo-6-sulphooxy-1,6-diaza-bicyclo[3.2.1]octane-2-carbonyl)-hydrazino]ethyl}-phenyl ester] | 25 nM | 370 nM | 2 µg/mL | 4 µg/mL | 2 µg/mL | –
16 | O=C(Cc1ccc(OC(=O)NC2CCCCC2)cc1)NNC(=O)[C@@H]1CC[C@@H]2CN1C(=O)N2OS(=O)(=O)O [Example 28, sodium salt of (2S,5R)-cyclohexyl-carbamic acid 4-{2-oxo-2-[N′-(7-oxo-6-sulphooxy-1,6-diaza-bicyclo[3.2.1]octane-2-carbonyl)-hydrazino]ethyl}-phenyl ester] | 8 nM | – | – | – | – | IC50 [2]: 243 nM; MIC ([3]; 18 h): 16 µg/mL; MIC ([4]; 18 h): 32 µg/mL; MIC ([5]; NCTC13353, 18 h): 8 µg/mL
17 | CC(C)[C@H](NC(=O)Oc1ccc(CC(=O)NNC(=O)[C@@H]2CC[C@@H]3CN2C(=O)N3OS(=O)(=O)O)cc1)C(=O)OC(C)(C)C [Example 29, sodium salt of (S)-3-methyl-2-(4-{2-oxo-2-[N′-((2S,5R)-7-oxo-6-sulphooxy-1,6-diaza-bicyclo[3.2.1]-octane-2-carbonyl)-hydrazino]-ethyl}-phenoxycarbonylamino)-butyric acid tert-butyl ester] | 327 nM | – | – | – | – | IC50 [2]: 2850 nM; MIC [3]: 4 µg/mL; MIC [4]: 16 µg/mL; MIC ([5]; NCTC13353): 4 µg/mL
